Test results taken from article PMC5650372 (Oncotarget, 2017).

What was measured:
NHEJ activity = experiment: Reconstituted cell-free NHEJ assay (MCF7 nuclear extract); type: biochemical, human
Experimental: MCF7 human breast cancer cells (5-10 x 10^7 each) were incubated in 5 pellet volumes of cold hypotonic buffer (10 mM Hepes-KOH, pH 7.5, 1.5 mM MgCl2, 5 mM KCl, and 0.5 mM DTT) for 20 minutes and were homogenized in a tight-fitting glass dounce homogenizer for 10-20 strokes. The nuclei were then collected by low-speed centrifugation and nuclear proteins were extracted by high-salt buffer (50 mM Tris-HCl, pH 7.5, 1 M KCl, 2 mM EDTA, 1 mM DTT, and protease inhibitors). The extracted nuclear proteins were dialyzed against 1 L of dialysis buffer (20 mM Tris-HCl, pH 8.0, 20% glycerol, 0.1 M KOAc, 0.5 mM EDTA, and 1 mM DTT) for 1 hour and were used for the in vitro NHEJ assay.
(§1) Nuclear protein (10-20 μg) prepared above was pre-treated with compounds as indicated on ice for 15 minutes. Twenty-five nanograms of EcoRI-digested pBluescript DNA (Stratagene, La Jolla, CA) were then added and the mixture was adjusted to 20 μL final volume in NHEJ buffer (50 mM Hepes-KOH pH 8.0, 40 mM KOAc, 1 mM Mg(OAc)2, 1 mM ATP, 0.1 mg/mL BSA, and 1 mM DTT). After incubation at 25°C for 60 minutes, the reaction was terminated by incubation with 1 μg/mL RNase A for 10 minutes followed by treatment with 2 mg/mL Protease K in 0.5% SDS at 55°C for 30 minutes. The reactions were run onto 0.8% agarose and the gel was stained with Sybr Green (S756, Invitrogen, Carlsbad, CA). For Western blots, an aliquot of the same reaction mixture described above was subjected to SDS-PAGE, transferred to the PVDF membrane, and immunoblotted with indicated antibodies.

NHEJ in Cal-51 cells = experiment: 384-well image-based cellular NHEJ assay; type: cell-based; details: Homo sapiens; Cal-51, n=3
Source text: (§2) ATM and ATR assay and IC50 determination Cellular NHEJ assay
(§3) HA-ATM and FLAG-ATR (HA-labeled ATM, and The experimental design is illustrated in FLAG-labeled ATR) were each transiently expressed in Supplementary Figure 4. Cal-51 breast cancer cells HEK293 cells (293FT cells, Invitrogen Cat: R700-07) were separately transfected with pEGFP plasmid (6085-using Lipofectamine as transfection reagent. Cells were 1, Clontech, Mountain View, CA) digested with either harvested 6 days post transfection and spun down to EcoRI (to measure NHEJ) or StuI (to measure transfection separate cells from media. Cells were then lysed using a efficiency) using a Amaxa cell line nuclearfector kit V lysis buffer (50 mM Tris buffer, (Tris(hydroxylmethyl)- (CCA-1003, Lonza). Immediately after the transfection, aminomethane, pH 7.5), 100 mM NaCl, 50 mM βGOP, the cells were treated with DMSO or compounds at 10% Glycerol, 0.5% Tween 20, 1 mM EDTA, 25 mM indicated concentrations for 24 hours and GFP-positive sodium fluoride (NaF), 20 nM microcystine, 2 mM cells were counted under a fluorescent microscope. NHEJ phenylmethylsulfonylfluoride (PMSF) and protease activity was calculated by the number of GFP-positive inhibitor cocktail) followed by sonication 3 times and a cells in cells transfected with pEGFP-EcoRI divided by final spin at 20,000 rpm for 30 minutes to generate a clear that in cells transfected with pEGFP-StuI, multiplied by lysate. To perform the immunoprecipitation, enzymes were 100. […]
(§4) or FLAG tags. Beads plus enzymes were then washed 3 developed. Different cell lines were transfected using times with lysis buffer and spun down at 1000 rpm for the procedure described above and subsequently seeded 1 minute. Beads plus enzymes were resuspended in lysis into 384-well plates at optimized density for individual buffer and kept at 4°C until assay. Assays for ATM and cell lines. Cells were then treated with compounds at ATR were conducted in a 33P radioactive assay format. increasing concentrations. GFP+ cells were imaged Assay buffer contained the following reagents: 1 mg/mL and quantitated using the IncuCyte (Essen Bioscience, GST-p53 (glutathione S-transferase–p53 fusion protein) Ann Arbor, MI). NHEJ activity was then normalized substrate (expressed in-house), 20 μg/mL calf thymus to the DMSO control and fitted to the Sigmoidal Dose-DNA activator (Sigma), 100 μg/mL BSA, 200 μM EGTA Response Model (IDBS XLFit Model 205; London, UK)

[1] = tested on: NHEJ in HCT116 colorectal cancer cells; experiment: 384-well image-based cellular NHEJ assay; type: cell-based; details: Homo sapiens, HCT-116; HCT116, n=3
Source text: as §2, §3, §4

[2] = tested on: NHEJ in MDA-MB-231 breast cancer cells; experiment: 384-well image-based cellular NHEJ assay; type: cell-based; details: Homo sapiens; MDA-MB-231, n=3
Source text: as §2, §3, §4

[3] = tested on: NHEJ in PC3 prostate cancer cells; experiment: 384-well image-based cellular NHEJ assay; type: cell-based; details: Homo sapiens; PC3, n=3
Source text: as §2, §3, §4

[4] = tested on: panel of 123 cancer cell lines; experiment: Proliferation assay, whole panel; type: cell-based; details: Homo sapiens; range over 123 cell lines; read-out: GI50 values across the cancer cell line panel
Experimental: Proliferation assays were performed as previously described. […] The concentration of compound required for a 2-fold induction of Caspase was determined (CalX).

pDNA-PK S2056 = experiment: Western blot of cell-free NHEJ reaction (MCF7 nuclear extract); type: biochemical, human
Experimental: as §1

pChk2 T68 = experiment: as above; type: biochemical, human; details: MCF7 nuclear extract, 0.05, 0.5 or 5 μM
Experimental: as §1

pATM S1981 = experiment: as above; type: biochemical, human; details: MCF7 nuclear extract with linear dsDNA
Experimental: as §1

[5] = tested on: pDNA-PK S2056 in NCI-H441 cells; experiment: Western blot quantitation of pDNA-PK S2056; type: cell-based, human
Experimental: The cell lysates were subjected to SDS-PAGE and immunoblotting with indicated antibodies. […] The pDNA-PK bands were quantified by Odyssey imaging software (LI-COR, Lincoln, NE) and normalized to total DNA-PK. IC50 values were determined by Excelfit (London, UK).

CCN1C(=O)CNc2ncc(-c3ccc(-c4nc[nH]n4)nc3C)nc21 [CC-115, 1-ethyl-7-(2-methyl-6-(1H-1,2,4-triazol-3-yl)pyridin-3yl)-3,4-dihydropyrazino[2,3-b]pyrazin-2(1H)-one]
inhibition of NHEJ activity, cell-free (NHEJ activity; 0.5 μM): Partial inhibition
inhibition of NHEJ activity, cell-free (NHEJ activity; 5 μM): complete inhibition
IC50 (NHEJ in Cal-51 cells): 3150 ± 1330 nM
IC50 [1]: 6350 ± 2980 nM
IC50 [2]: 2160 ± 910 nM
IC50 [3]: 2720 ± 1690 nM
GI50 [4]: 15 to 1770 nM
inhibition of pDNA-PK S2056, cell-free (pDNA-PK S2056): inhibited
inhibition of pChk2 T68, cell-free (pChk2 T68): also inhibited
inhibition of pATM S1981, cell-free (pATM S1981): reduction
IC50 ([5]; Homo sapiens, NCI-H441, presence of bleomycin, 2 hrs, n=3, read-out: IC50 of pDNA-PK S2056 inhibition): 2600 ± 450 nM
cellular activity against DNA-PK weaker than against mTOR kinase ([5]; NCI-H441): ~16 fold
